target: T1, AR (Homo sapiens, UniProt P10275); assay: GeneBlazer assay, inhibition against AR activity; assay type: cell-based; settings: 10 uM; Table II
T1 sequence (P10275 669-920 limits assumed): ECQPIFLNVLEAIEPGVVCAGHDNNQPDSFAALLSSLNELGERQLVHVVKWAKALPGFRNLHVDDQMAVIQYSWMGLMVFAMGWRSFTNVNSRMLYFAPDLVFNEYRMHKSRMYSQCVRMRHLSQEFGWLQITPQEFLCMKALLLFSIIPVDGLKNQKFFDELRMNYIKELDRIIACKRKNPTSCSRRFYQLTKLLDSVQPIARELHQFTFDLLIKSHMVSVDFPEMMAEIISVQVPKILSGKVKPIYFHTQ
Source text: Tables II, III and IV show % inhibition against AR activity at 10 μm within a GeneBlazer assay, and IC50 values (nM) in GeneBlazer assay.

| Structure (SMILES) | inhibition at 10 µM |
| --- | --- |
| CC(C)(C)n1nnnc1C(/C=C/c1ccccc1)N1CCN(c2c(Cl)cncc2Cl)CC1 (centres unmarked) [Compound 43, (E)-1-(1-(1-(tert-butyl)-1H-tetrazol-5-yl)-3-phenylallyl)-4-(3,5-dichloropyridin-4-yl)piperazine] | 111% |
| CCCCn1nnnc1C(c1cc2ccccc2[nH]1)N1CCN(c2c(Cl)cncc2Cl)CC1 (centres unmarked) [Compound 46, 2-((1-butyl-1H-tetrazol-5-yl)(4-(3,5-dichloropyridin-4-yl)piperazin-1-yl)methyl)-1H-indole] | 102% |
| CC(C)(C)n1nnnc1C(c1cc2ccccc2[nH]1)N1CCN(c2c(Cl)cncc2Cl)CC1 (centres unmarked) [Compound 47, 2-((1-(tert-butyl)-1H-tetrazol-5-yl)(4-(3,5-dichloropyridin-4-yl)piperazin-1-yl)methyl)-1H-indole] | 114% |
| CCCCn1nnnc1C(c1ccc(C)o1)N1CCN(c2c(Cl)cncc2Cl)CC1 (centres unmarked) [Compound 48, 1-((1-butyl-1H-tetrazol-5-yl)(5-methylfuran-2-yl)methyl)-4-(3,5-dichloropyridin-4-yl)piperazine] | 100% |
| Cc1ccc(C(c2nnnn2C(C)(C)C)N2CCN(c3c(Cl)cncc3Cl)CC2)o1 (centres unmarked) [Compound 49, 1-((1-(tert-butyl)-1H-tetrazol-5-yl)(5-methylfuran-2-yl)methyl)-4-(3,5-dichloropyridin-4-yl)piperazine] | 100% |
| CC(C)n1nnnc1C(c1ccco1)N1CCN(c2c(Cl)cncc2Cl)CC1 (centres unmarked) [Compound 50, 1-(3,5-dichloropyridin-4-yl)-4-(furan-2-yl(1-isopropyl-1H-tetrazol-5-yl)methyl)piperazine] | 96.7% |
| CC(C)n1nnnc1C(c1ccnc2ccccc12)N1CCN(c2c(Cl)cncc2Cl)CC1 (centres unmarked) [Compound 51, 4-((4-(3,5-dichloropyridin-4-yl)piperazin-1-yl)(1-isopropyl-1H-tetrazol-5-yl)methyl)quinoline] | 101% |
| CCCCC(c1nnnn1C(C)C)N1CCN(c2c(Cl)cncc2Cl)CC1 (centres unmarked) [Compound 52, 1-(3,5-dichloropyridin-4-yl)-4-(1-(1-isopropyl-1H-tetrazol-5-yl)pentyl)piperazine] | 95.8% |
| COC(=O)Cn1nnnc1C(c1cccc(O)c1)N1CCN(c2c(Cl)cncc2Cl)CC1 (centres unmarked) [Compound 53, Methyl 2-(5-((4-(3,5-dichloropyridin-4-yl)piperazin-1-yl)(3-hydroxyphenyl)methyl)-1H-tetrazol-1-yl)acetate] | 72.4% |
| CCCCn1nnnc1C(c1cccc(O)c1)N1CCN(c2ccc(F)cc2)CC1 (centres unmarked) [Compound 54, 3-((1-butyl-1H-tetrazol-5-yl)(4-(4-fluorophenyl)piperazin-1-yl)methyl)phenol] | 51.3% |
| CCCCn1nnnc1C(c1cccc(O)c1)N1CCN(c2c(C)cccc2C)CC1 (centres unmarked) [Compound 55, 3-((1-butyl-1H-tetrazol-5-yl)(4-(2,6-dimethylphenyl)piperazin-1-yl)methyl)phenol] | 109% |
| CCCCn1nnnc1C(c1cccc(O)c1)N1CCN(C(=O)OC(C)(C)C)CC1 (centres unmarked) [Compound 56, tert-butyl 4-((1-butyl-1H-tetrazol-5-yl)(3-hydroxyphenyl)methyl)piperazine-1-carboxylate] | 24.6% |
| CCCCn1nnnc1C(c1cccc(O)c1)N1CCN(C(=O)OCc2ccccc2)CC1 (centres unmarked) [Compound 57, benzyl 4-((1-butyl-1H-tetrazol-5-yl)(3-hydroxyphenyl)methyl)piperazine-1-carboxylate] | 24.9% |
| CCCCn1nnnc1C(c1cccc(O)c1)N1CCN(c2cccc(C(F)(F)F)n2)CC1 (centres unmarked) [Compound 58, 3-((1-butyl-1H-tetrazol-5-yl)(4-(6-(trifluoromethyl)pyridin-2-yl)piperazin-1-yl)methyl)phenol] | 58.4% |
| CCCCn1nnnc1C(c1cccc(O)c1)N1CCN(c2ccccc2OC)CC1 (centres unmarked) [Compound 59, 3-((1-butyl-1H-tetrazol-5-yl)(4-(2-methoxyphenyl)piperazin-1-yl)methyl)phenol] | 94.5% |
| CCCCn1nnnc1C(c1cccc(O)c1)N1CCN(c2ncccc2C(F)(F)F)CC1 (centres unmarked) [Compound 60, 3-((1-butyl-1H-tetrazol-5-yl)(4-(3-(trifluoromethyl)pyridin-2-yl)piperazin-1-yl)methyl)phenol] | 105% |
| CCCCn1nnnc1C(c1cccc(O)c1)N1CCN(c2ncc(C(F)(F)F)cc2Cl)CC1 (centres unmarked) [Compound 61, 3-((1-butyl-1H-tetrazol-5-yl)(4-(3-chloro-5-(trifluoromethyl)pyridin-2-yl)piperazin-1-yl)methyl)phenol] | 102% |
| CCCCn1nnnc1C(c1cccc(O)c1)N1CCN(c2ccccn2)CC1 (centres unmarked) [Compound 62, 3-((1-butyl-1H-tetrazol-5-yl)(4-(pyridin-2-yl)piperazin-1-yl)methyl)phenol] | 19.9% |
| CCCCn1nnnc1C(c1cccc(O)c1)N1CCN(c2ccc(C(C)=O)cc2)CC1 (centres unmarked) [Compound 63, 1-(4-(4-((1-butyl-1H-tetrazol-5-yl)(3-hydroxyphenyl)methyl)piperazin-1-yl)phenyl)ethanone] | 47.9% |
| CCCCn1nnnc1C(c1cccc(O)c1)N1CCN(c2ccccc2F)CC1 (centres unmarked) [Compound 65, 3-((1-butyl-1H-tetrazol-5-yl)(4-(2-fluorophenyl)piperazin-1-yl)methyl)phenol] | 79.8% |
| CCCCn1nnnc1C(c1cccc(O)c1)N1CCN(c2cccc(C)c2C)CC1 (centres unmarked) [Compound 66, 3-((1-butyl-1H-tetrazol-5-yl)(4-(2,3-dimethylphenyl)piperazin-1-yl)methyl)phenol] | 106% |
| CCCCn1nnnc1C(c1cccc(O)c1)N1CCN(c2ccccc2)CC1 (centres unmarked) [Compound 67, 3-((1-butyl-1H-tetrazol-5-yl)(4-phenylpiperazin-1-yl)methyl)phenol] | 63.9% |
| CC(C)(C)n1nnnc1C(c1cccc(O)c1)N1CCN(C/C=C/c2ccccc2)CC1 (centres unmarked) [Compound 68, (E)-3-((1-(tert-butyl)-1H-tetrazol-5-yl)(4-cinnamylpiperazin-1-yl)methyl)phenol] | 17.2% |
| CCCCn1nnnc1C(CCc1ccccc1)N1CCN(c2c(Cl)cncc2Cl)CC1 (centres unmarked) [Compound 69, 1-(1-(1-butyl-1H-tetrazol-5-yl)-3-phenylpropyl)-4-(3,5-dichloropyridin-4-yl)piperazine] | 96% |
| CC(C)(C)n1nnnc1C(CCc1ccccc1)N1CCN(c2c(Cl)cncc2Cl)CC1 (centres unmarked) [Compound 70, 1-(1-(1-(tert-butyl)-1H-tetrazol-5-yl)-3-phenylpropyl)-4-(3,5-dichloropyridin-4-yl)piperazine] | 109% |
| CCCCn1nnnc1C(c1cccc(O)c1)N1CCN(C/C=C/c2ccccc2)CC1 (centres unmarked) [Compound 71, (E)-3-((1-butyl-1H-tetrazol-5-yl)(4-cinnamylpiperazin-1-yl)methyl)phenol] | 11.9% |
| CCCCn1nnnc1C(c1cccc(O)c1)N1CCN(c2cc(C)ccc2C)CC1 (centres unmarked) [Compound 72, 3-((1-butyl-1H-tetrazol-5-yl)(4-(2,5-dimethylphenyl)piperazin-1-yl)methyl)phenol] | 112% |

same assay, conditions: Table II

| Structure (SMILES) | IC50 |
| --- | --- |
| CCCCn1nnnc1C(c1cc2ccccc2[nH]1)N1CCN(c2c(Cl)cncc2Cl)CC1 (centres unmarked) [Compound 46, 2-((1-butyl-1H-tetrazol-5-yl)(4-(3,5-dichloropyridin-4-yl)piperazin-1-yl)methyl)-1H-indole] | 381 nM |
| CC(C)(C)n1nnnc1C(c1cc2ccccc2[nH]1)N1CCN(c2c(Cl)cncc2Cl)CC1 (centres unmarked) [Compound 47, 2-((1-(tert-butyl)-1H-tetrazol-5-yl)(4-(3,5-dichloropyridin-4-yl)piperazin-1-yl)methyl)-1H-indole] | 182 nM |
| CCCCn1nnnc1C(c1cccc(O)c1)N1CCN(c2ncc(C(F)(F)F)cc2Cl)CC1 (centres unmarked) [Compound 61, 3-((1-butyl-1H-tetrazol-5-yl)(4-(3-chloro-5-(trifluoromethyl)pyridin-2-yl)piperazin-1-yl)methyl)phenol] | 2270 nM |
| CC(C)(C)n1nnnc1C(CCc1ccccc1)N1CCN(c2c(Cl)cncc2Cl)CC1 (centres unmarked) [Compound 70, 1-(1-(1-(tert-butyl)-1H-tetrazol-5-yl)-3-phenylpropyl)-4-(3,5-dichloropyridin-4-yl)piperazine] | 1280 nM |
| CCCCn1nnnc1C(c1cccc(O)c1)N1CCN(c2cc(C)ccc2C)CC1 (centres unmarked) [Compound 72, 3-((1-butyl-1H-tetrazol-5-yl)(4-(2,5-dimethylphenyl)piperazin-1-yl)methyl)phenol] | 790 nM |

Reference: patent US20220062278A1, “SMALL MOLECULE INHIBITORS OF THE ANDROGEN RECEPTOR ACTIVITY AND/OR EXPRESSION AND USES THEREOF” (Arizona Board of Regents on Behalf of the Univeristy of …, priority 2018, published 2022)
